# In patent publication US20190100549A1, “FLAVONOIDE-TYPE COMPOUNDS BEARING AN O-RHAMNOSYL RESIDUE” (Universitaet Hamburg, priority 2016, published 2019):
# What was measured:
# Type in all cases: cell-based
# STAT3 = STAT3 activity in HeLa-STAT3-luc cells stimulated with IFN-γ (luciferase); conditions: for Mean: mean of triplicate wells
# Protocol: HeLa-STAT3-luc cells were stably transfected with the plasmid 4xM67 pTATA TK-Luc. Cells (20×10^3 cells/ml) were seeded 96-well plate the day before the assay. Then the cells were treated with the test substances for 15 min and then stimulated with IFN-γ 25 IU/ml. After 6 h, the cells were washed twice with PBS and lysed in 50 μl lysis buffer containing 25 mM Tris-phosphate (pH 7.8), 8 mM MgCl2, 1 mM DTT, 1% Triton X-100, and 7% glycerol during 15 min at RT in a horizontal shaker. Luciferase activity was measured using GloMax 96 microplate luminometer (Promega) following the instructions of the luciferase assay kit (Promega, Madison, Wis., USA). […] The experiments for each concentration of the test items were done in triplicate wells.
# NF-κB = NF-κB activity in NIH3T3-KBF-Luc cells stimulated with TNFα (luciferase); conditions: for % Activation: TNFα alone = 100
# Protocol: NIH3T3-KBF-Luc cells were stably transfected with the KBF-Luc plasmid (Sancho (2003) Mol Pharmacol 63:429-438), which contains three copies of NF-κB binding site (from major histocompatibility complex promoter), fused to a minimal simian virus 40 promoter driving the luciferase gene. Cells (1×10^4 for NIH3T3-KBF-Luc) were seeded the day before the assay on 96-well plate. Then the cells were treated with the test substances for 15 min and then stimulated with 30 ng/ml of TNFα. After 6 h, the cells were washed twice with PBS and lysed in 50 μl lysis buffer containing 25 mM Tris-phosphate (pH 7.8), 8 mM MgCl2, 1 mM DTT, 1% Triton X-100, and 7% glycerol during 15 min at RT in a horizontal shaker. Luciferase activity was measured using a GloMax 96 microplate luminometer (Promega) following the instructions of the luciferase assay kit (Promega, Madison, Wis., USA). […] The experiments for each concentration of the test items were done in triplicate wells.
# HaCaT cells = assay: Glucose uptake (2-NBDG) in HaCaT keratinocytes; set-up: key to Measure 1 / Measure 2 / Measure 3 / Mean: total green object integrated intensity, GCU×μm2×Well; conditions: +2NBDG 50 μM, 24 h; for Measure 1 / Measure 2 / Measure 3: HaCaT cells, fluorescence; for RFU specific: mean minus control; for Mean: mean of triplicate measurements; for % Glucose uptake: Rosiglitazone 80 μM = 100%
# Protocol: HaCaT cells (5×10^4) were seeded in 96-well black plates and incubated for 24 h. Then, medium was removed and the cells cultivated in OptiMEM, labeled with 50 μM 2-NBDG (2-[N-(7-nitrobenz-2-oxa-1,3-diazol-4-yl) amino]-2-deoxy-D-glucose and treated with the test substances or the positive control, Rosiglitazone, for 24 h. Medium was removed and the wells were carefully washed with PBS and incubated in PBS (100l/well). Finally the fluorescence was measured using the Incucyte FLR software, the data were analyzed by the total green object integrated intensity (GCU×μm2×Well) of the imaging system IncuCyte HD (Essen BioScience). The fluorescence of Rosiglitazone is taken as 100% of glucose uptake, and the glucose uptake was calculated as (% Glucose uptake)=100(T−B)/(R−B), where T (treated) is the fluorescence of test substance-treated cells, B (Basal) is the fluorescence of 2-NBDG cells and […] is the fluorescence of cells treated with Rosiglitazone.
substance,measurement,setting,value
Diosmetin-5-O-α-L-rhamnoside [DR2],RLU 1,"STAT3; 25 μM test substance, +IFNγ 25 U/ml, HeLa-STAT3-luc cells, replicate well 1",12137 RLU
same,RLU 2,"STAT3; 25 μM test substance, +IFNγ 25 U/ml, HeLa-STAT3-luc cells, replicate well 2",10269 RLU
same,RLU 3,"STAT3; 25 μM test substance, +IFNγ 25 U/ml, HeLa-STAT3-luc cells, replicate well 3",9275 RLU
same,RLU specific,"STAT3; 25 μM test substance, +IFNγ 25 U/ml, mean minus control",8553 RLU
same,Mean,"STAT3; 25 μM test substance, +IFNγ 25 U/ml",10560 RLU
same,% Activation,"STAT3; 25 μM test substance, +IFNγ 25 U/ml, IFNγ alone = 100% activation",68.33%
same,RLU 1,"STAT3; 50 μM test substance, +IFNγ 25 U/ml, HeLa-STAT3-luc cells, replicate well 1",13005 RLU
same,RLU 2,"STAT3; 50 μM test substance, +IFNγ 25 U/ml, HeLa-STAT3-luc cells, replicate well 2",10547 RLU
same,RLU 3,"STAT3; 50 μM test substance, +IFNγ 25 U/ml, HeLa-STAT3-luc cells, replicate well 3",10143 RLU
same,RLU specific,"STAT3; 50 μM test substance, +IFNγ 25 U/ml, mean minus control",9224 RLU
same,Mean,"STAT3; 50 μM test substance, +IFNγ 25 U/ml",11232 RLU
same,% Activation,"STAT3; 50 μM test substance, +IFNγ 25 U/ml, IFNγ alone = 100% activation",73.69%
same,RLU 1,NF-κB; 10 μM + 30 ng/ml TNFα,211150 RLU
same,RLU 2,NF-κB; 10 μM + 30 ng/ml TNFα,215320 RLU
same,RLU 3,NF-κB; 10 μM + 30 ng/ml TNFα,213260 RLU
same,RLU MEAN,NF-κB; 10 μM + 30 ng/ml TNFα,213243 RLU
same,RLU specific,NF-κB; 10 μM + 30 ng/ml TNFα,189880 RLU
same,% Activation,NF-κB; 10 μM + 30 ng/ml TNFα,145.6%
same,RLU 1,NF-κB; 25 μM + 30 ng/ml TNFα,245900 RLU
same,RLU 2,NF-κB; 25 μM + 30 ng/ml TNFα,241550 RLU
same,RLU 3,NF-κB; 25 μM + 30 ng/ml TNFα,234880 RLU
same,RLU MEAN,NF-κB; 25 μM + 30 ng/ml TNFα,240777 RLU
same,RLU specific,NF-κB; 25 μM + 30 ng/ml TNFα,217413 RLU
same,% Activation,NF-κB; 25 μM + 30 ng/ml TNFα,166.7%
same,Measure 1,HaCaT cells; 25 μM test substance,632398
same,Measure 2,HaCaT cells; 25 μM test substance,940240
same,Measure 3,HaCaT cells; 25 μM test substance,197738
same,RFU specific,HaCaT cells; 25 μM test substance,583811 RFU
same,Mean,HaCaT cells; 25 μM test substance,590125
same,% Glucose uptake,HaCaT cells; 25 μM test substance,67.2%
same,Measure 1,HaCaT cells; 50 μM test substance,2958363
same,Measure 2,HaCaT cells; 50 μM test substance,1297231
same,Measure 3,HaCaT cells; 50 μM test substance,2493030
same,RFU specific,HaCaT cells; 50 μM test substance,2243227 RFU
same,Mean,HaCaT cells; 50 μM test substance,2249541
same,% Glucose uptake,HaCaT cells; 50 μM test substance,258.2%
Silibinin-5-O-α-L-rhamnoside [SR1],RLU 1,STAT3; 25 μM + IFNγ 25 U/ml,9507 RLU
same,RLU 2,STAT3; 25 μM + IFNγ 25 U/ml,11653 RLU
same,RLU 3,STAT3; 25 μM + IFNγ 25 U/ml,10203 RLU
same,RLU MEAN,STAT3; 25 μM + IFNγ 25 U/ml,10454 RLU
same,RLU specific,STAT3; 25 μM + IFNγ 25 U/ml,8447 RLU
same,% Activation,"STAT3; 25 μM + IFNγ 25 U/ml, IFNγ alone = 100",92.24%
same,RLU 1,STAT3; 50 μM + IFNγ 25 U/ml,10090 RLU
same,RLU 2,STAT3; 50 μM + IFNγ 25 U/ml,11355 RLU
same,RLU 3,STAT3; 50 μM + IFNγ 25 U/ml,10938 RLU
same,RLU MEAN,STAT3; 50 μM + IFNγ 25 U/ml,10794 RLU
same,RLU specific,STAT3; 50 μM + IFNγ 25 U/ml,8787 RLU
same,% Activation,"STAT3; 50 μM + IFNγ 25 U/ml, IFNγ alone = 100",95.95%
same,RLU 1,NF-κB; 10 μM + 30 ng/ml TNFα,269710 RLU
same,RLU 2,NF-κB; 10 μM + 30 ng/ml TNFα,262180 RLU
same,RLU 3,NF-κB; 10 μM + 30 ng/ml TNFα,254090 RLU
same,RLU MEAN,NF-κB; 10 μM + 30 ng/ml TNFα,261993 RLU
same,RLU specific,NF-κB; 10 μM + 30 ng/ml TNFα,229147 RLU
same,% Activation,NF-κB; 10 μM + 30 ng/ml TNFα,154.8%
same,RLU 2,NF-κB; 25 μM + 30 ng/ml TNFα,171280 RLU
same,RLU 3,NF-κB; 25 μM + 30 ng/ml TNFα,171730 RLU
same,RLU MEAN,NF-κB; 25 μM + 30 ng/ml TNFα,172650 RLU
same,RLU specific,NF-κB; 25 μM + 30 ng/ml TNFα,139803 RLU
same,% Activation,NF-κB; 25 μM + 30 ng/ml TNFα,94.4%
